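Exposure lasted 48 hours, with cells grown in 96-well plates and compounds tested at five concentrations. Here, GI50 denotes the concentration required for 50% inhibition of growth.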 Activity calls are given as the source filed them. Rule as the data show it: active = GI50 up to about 1.1 µM and inactive = higher.
Assays:
Assay in all cases: DTP human tumour cell line panel, 48 h
MCF7 = test system: MCF7
SK-OV-3 = test system: SK-OV-3
A498 = test system: A498
KM12 = test system: KM12
UO-31 = test system: UO-31
HOP-92 = test system: HOP-92
SNB-75 = test system: SNB-75
SF-539 = test system: SF-539
BT-549 = test system: BT-549
NCI-H226 = test system: NCI-H226
NCI-H23 = test system: NCI-H23
SN12C = test system: SN12C
SK-MEL-2 = test system: SK-MEL-2
MDA-N = test system: MDA-N
SF-295 = test system: SF-295
OVCAR-4 = test system: OVCAR-4
MDA-MB-435 = test system: MDA-MB-435
MDA-MB-231 = test system: MDA-MB-231
A549 = test system: A549
786-0 = test system: 786-0
COLO 205 = test system: COLO 205
SW-620 = test system: SW-620
DU-145 = test system: DU-145
SK-MEL-5 = test system: SK-MEL-5
K562 = test system: K562
HL-60 = test system: HL-60
LOX IMVI = test system: LOX IMVI
Malme-3M = test system: Malme-3M
M14 = test system: M14
CCRF-CEM = test system: CCRF-CEM
ACHN = test system: ACHN
IGROV-1 = test system: IGROV-1
HCT-116 = test system: HCT-116
SNB-19 = test system: SNB-19
HCC 2998 = test system: HCC 2998
OVCAR-5 = test system: OVCAR-5
CAKI-1 = test system: CAKI-1
RXF 393 = test system: RXF 393
MOLT-4 = test system: MOLT-4
NCI/ADR-RES = test system: NCI/ADR-RES
RPMI-8226 = test system: RPMI-8226
U-251 = test system: U-251
NCI-H460 = test system: NCI-H460
HCT-15 = test system: HCT-15
SR = test system: SR
OVCAR-3 = test system: OVCAR-3
EKVX = test system: EKVX
UACC-257 = test system: UACC-257
HOP-62 = test system: HOP-62
OVCAR-8 = test system: OVCAR-8
SK-MEL-28 = test system: SK-MEL-28
UACC-62 = test system: UACC-62
HT-29 = test system: HT-29
NCI-H522 = test system: NCI-H522
PC-3 = test system: PC-3
T47D = test system: T47D
TK-10 = test system: TK-10
SF-268 = test system: SF-268

Structure (SMILES): c1ccc2c(c1)c(N1CCCCC1)cc1nc3c(cc(N4CCCCC4)c4ccccc43)nc12
- GI50 (MCF7): > 100 µM (inactive)
- GI50 (SK-OV-3): > 100 µM (inactive)
- GI50 (A498): > 100 µM (inactive)
- GI50 (KM12): > 100 µM (inactive)
- GI50 (UO-31): > 100 µM (inactive)
- GI50 (HOP-92): > 100 µM (inactive)
- GI50 (SNB-75): 11.9 µM (inactive)
- GI50 (SF-539): > 100 µM (inactive)
- GI50 (BT-549): > 100 µM (inactive)
- GI50 (NCI-H226): > 100 µM (inactive)
- GI50 (NCI-H23): > 100 µM (inactive)
- GI50 (SN12C): > 100 µM (inactive)
- GI50 (SK-MEL-2): > 100 µM (inactive)
- GI50 (MDA-N): > 100 µM (inactive)
- GI50 (SF-295): > 100 µM (inactive)
- GI50 (OVCAR-4): > 100 µM (inactive)
- GI50 (MDA-MB-435): > 100 µM (inactive)
- GI50 (MDA-MB-231): > 100 µM (inactive)
- GI50 (A549): > 100 µM (inactive)
- GI50 (786-0): > 100 µM (inactive)
- GI50 (COLO 205): > 100 µM (inactive)
- GI50 (SW-620): > 100 µM (inactive)
- GI50 (DU-145): > 100 µM (inactive)
- GI50 (SK-MEL-5): > 100 µM (inactive)
- GI50 (K562): > 100 µM (inactive)
- GI50 (HL-60): > 100 µM (inactive)
- GI50 (LOX IMVI): > 100 µM (inactive)
- GI50 (Malme-3M): > 100 µM (inactive)
- GI50 (M14): > 100 µM (inactive)
- GI50 (CCRF-CEM): > 100 µM (inactive)
- GI50 (ACHN): > 100 µM (inactive)
- GI50 (IGROV-1): > 100 µM (inactive)
- GI50 (HCT-116): > 100 µM (inactive)
- GI50 (SNB-19): > 100 µM (inactive)
- GI50 (HCC 2998): > 100 µM (inactive)
- GI50 (OVCAR-5): > 100 µM (inactive)
- GI50 (CAKI-1): > 100 µM (inactive)
- GI50 (RXF 393): > 100 µM (inactive)
- GI50 (MOLT-4): > 100 µM (inactive)
- GI50 (NCI/ADR-RES): > 100 µM (inactive)
- GI50 (RPMI-8226): > 100 µM (inactive)
- GI50 (U-251): > 100 µM (inactive)
- GI50 (NCI-H460): > 100 µM (inactive)
- GI50 (HCT-15): > 100 µM
- GI50 (SR): > 100 µM (inactive)
- GI50 (OVCAR-3): > 100 µM (inactive)
- GI50 (EKVX): > 100 µM (inactive)
- GI50 (UACC-257): > 100 µM (inactive)
- GI50 (HOP-62): > 100 µM (inactive)
- GI50 (OVCAR-8): > 100 µM (inactive)
- GI50 (SK-MEL-28): > 100 µM (inactive)
- GI50 (UACC-62): > 100 µM (inactive)
- GI50 (HT-29): > 100 µM (inactive)
- GI50 (NCI-H522): > 100 µM (inactive)
- GI50 (PC-3): > 100 µM (inactive)

Structure (SMILES): CC(=O)O[C@H]1CCC2[C@@H]3CCC4Nc5oncc5C[C@]4(C)C3CC[C@@]21C (some centres undefined)
- GI50 (MCF7): 8.55 µM (inactive)
- GI50 (SK-OV-3): > 10 µM (inactive)
- GI50 (A498): 4.62 µM (inactive)
- GI50 (KM12): > 10 µM (inactive)
- GI50 (UO-31): > 10 µM (inactive)
- GI50 (HOP-92): > 10 µM (inactive)
- GI50 (SF-539): 3.94 µM (inactive)
- GI50 (BT-549): > 10 µM (inactive)
- GI50 (NCI-H226): > 10 µM (inactive)
- GI50 (NCI-H23): > 10 µM (inactive)
- GI50 (SN12C): > 10 µM (inactive)
- GI50 (SK-MEL-2): > 10 µM (inactive)
- GI50 (MDA-N): > 10 µM (inactive)
- GI50 (SF-295): > 10 µM (inactive)
- GI50 (T47D): > 10 µM (inactive)
- GI50 (OVCAR-4): > 10 µM (inactive)
- GI50 (MDA-MB-435): > 10 µM (inactive)
- GI50 (TK-10): > 10 µM (inactive)
- GI50 (MDA-MB-231): > 10 µM (inactive)
- GI50 (A549): > 10 µM (inactive)
- GI50 (786-0): 6.5 µM (inactive)
- GI50 (COLO 205): > 10 µM (inactive)
- GI50 (SW-620): > 10 µM (inactive)
- GI50 (DU-145): > 10 µM (inactive)
- GI50 (SK-MEL-5): > 10 µM (inactive)
- GI50 (K562): > 10 µM (inactive)
- GI50 (HL-60): 1.98 µM (inactive)
- GI50 (LOX IMVI): > 10 µM (inactive)
- GI50 (Malme-3M): > 10 µM (inactive)
- GI50 (M14): > 10 µM (inactive)
- GI50 (CCRF-CEM): 3.67 µM (inactive)
- GI50 (ACHN): > 10 µM (inactive)
- GI50 (IGROV-1): > 10 µM (inactive)
- GI50 (HCT-116): 6.49 µM (inactive)
- GI50 (SNB-19): > 10 µM (inactive)
- GI50 (HCC 2998): > 10 µM (inactive)
- GI50 (OVCAR-5): > 10 µM (inactive)
- GI50 (CAKI-1): > 10 µM (inactive)
- GI50 (RXF 393): > 10 µM (inactive)
- GI50 (MOLT-4): 3.92 µM (inactive)
- GI50 (NCI/ADR-RES): > 10 µM (inactive)
- GI50 (RPMI-8226): > 10 µM (inactive)
- GI50 (U-251): > 10 µM (inactive)
- GI50 (NCI-H460): > 10 µM (inactive)
- GI50 (HCT-15): > 10 µM
- GI50 (SR): > 10 µM (inactive)
- GI50 (OVCAR-3): 2.55 µM (inactive)
- GI50 (UACC-257): > 10 µM (inactive)
- GI50 (HOP-62): > 10 µM (inactive)
- GI50 (OVCAR-8): > 10 µM (inactive)
- GI50 (SK-MEL-28): > 10 µM (inactive)
- GI50 (HT-29): > 10 µM (inactive)
- GI50 (PC-3): > 10 µM (inactive)
- GI50 (SF-268): > 10 µM (inactive)
